biological target: T1, human Nav1.1 (Homo sapiens, UniProt P35498); assay: Amplification of Nav1.1-derived voltage-gated sodium current (Nav1.1 current), automated patch clamp (Test 1); type: cell-based; conditions: Concentration for evaluation 1 μM; HEK293 cell line stably expressing human Nav1.1
T1 construct: host or cells: HEK293
In short: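 Compound-induced change in ramp-evoked sodium current peak and AUC was expressed as 100×post/pre ratio minus 100. Recordings used automated patch clamp in voltage-clamp mode on a stable human Nav1.1 HEK293 line, including only cells above 500 pA. Compounds were delivered in extracellular fluid containing 1% DMSO.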

Row | SMILES | Nav1.1 current amplification rate (%)
1 | CC1CC=C(c2ccc(=O)n(CC(=O)N3CCCN(c4cccnc4)CC3)n2)CC1 (stereo not shown) [Example 384] | 15%
2 | O=C(Cn1ncc2ncc(C3=CCC4(CC3)CC4(F)F)nc21)Nc1ccc2ncnn2c1 (stereo not shown) [Example 660] | 64%
3 | CC1CC=C(c2ccc(=O)n(CC(=O)N3CCc4c3ccnc4-c3cccnc3)n2)CC1 (stereo not shown) [Example 297] | 151%
4 | CN(c1cnc2cnn(CC(=O)Nc3ccc4cccnc4c3)c2n1)C1CC1 [Example 711] | 100%
5 | CN(c1cnc2cnn(CC(=O)Nc3cnc4ncccc4c3)c2n1)C1CC1 [Example 723] | 95%
6 | COC1CN(Cc2cccc3c2CCN3C(=O)Cn2nc(C3=CCC(C)CC3)ccc2=O)C1 (stereo not shown) [Example 274] | 60%
7 | CC1CC=C(c2ccc(=O)n(CC(=O)Nc3cnc4c(cnn4C)c3)n2)CC1 (stereo not shown) [Example 348] | 57%
8 | CC1CC=C(c2ncc3cnn(CC(=O)Nc4ccn5ncnc5c4)c3n2)CC1 (racemic) [Example 764] | 164%
9 | CN(c1cnc2cnn(CC(=O)N3CCc4c(-c5cnn(C)c5)cccc43)c2n1)C1CCC1 [Example 694] | 448%
10 | CC1CC=C(c2ccc(=O)n(CC(=O)N3CCc4c3ccnc4C3=CCOCC3)n2)CC1 (stereo not shown) [Example 296] | 87%
11 | CC1CCN(c2ncc3cnn(CC(=O)Nc4ccn5ncnc5c4)c3n2)CC1 [Example 763] | 98%
12 | O=C(Cn1ncc2cnc(N3CCC4(CC4)C(F)(F)C3)nc21)Nc1ccn2ncnc2c1 [Example 792] | 161%
13 | CC1CC=C(c2ccc(=O)n(CC(=O)N3CCc4cc(OCC(C)(C)O)ccc43)n2)CC1 (stereo not shown) [Example 320] | 10%
14 | CN(c1cnc2cnn(CC(=O)N3CCc4cc(N5CCOCC5)ccc43)c2n1)C1CC1 [Example 705] | 54%
15 | CC1CCN(c2cnc3cnn(CC(=O)Nc4ccc5ncnn5c4)c3n2)CC1(F)F (stereo not shown) [Example 658] | 33%

same assay, conditions: Concentration for evaluation 3 μM; HEK293 cell line stably expressing human Nav1.1

Row | SMILES | Nav1.1 current amplification rate (%)
16 | CC1CC=C(c2ccc(=O)n(CC(=O)N3CCc4c(-c5ccncc5)cccc43)n2)CC1 (stereo not shown) [Example 250] | 564%
17 | CN(c1cnc2cnn(CC(=O)N3CC=C(c4cccnc4)CC3)c2n1)C1CC1 [Example 700] | 13%
18 | CC1CC=C(c2ccc(=O)n(CC(=O)N3CCc4c(C5CNC5)cccc43)n2)CC1 (stereo not shown) [Example 299] | 6%
19 | COc1ncc(N2CCN(C(=O)Cn3nc(C4=CCC(C)CC4)ccc3=O)CC2)cc1F (stereo not shown) [Example 409] | 244%
20 | CN(c1cnc2cnn(CC(=O)N3CCN(c4cccnc4)CC3)c2n1)C1CCCC1 [Example 673] | 20%
21 | COc1ncc(-c2cccc3c2CCN3C(=O)Cn2nc(C3=CCC(C)CC3)ccc2=O)cn1 (stereo not shown) [Example 249] | 584%
22 | CC1CC=C(c2ccc(=O)n(CC(=O)N3CCc4c(C5CN(C(=O)C(C)(C)O)C5)cccc43)n2)CC1 (stereo not shown) [Example 306] | 532%
23 | CC1CC=C(c2ccc(=O)n(CC(=O)N3CCc4cc(C5CN(C6COC6)C5)ccc43)n2)CC1 (stereo not shown) [Example 318] | 77%

same assay, conditions: Concentration for evaluation 10 μM; HEK293 cell line stably expressing human Nav1.1

Row | SMILES | Nav1.1 current amplification rate (%)
24 | COc1cc(C2=CCC(C)CC2)nn(CC(=O)Nc2ccn3ccnc3c2)c1=O (stereo not shown) [Example 463] | 218%
25 | CC1CCN(c2ccc(=O)n(CC(=O)Nc3cccc(-c4nccs4)c3)n2)CC1 [Example 80] | 131%
26 | CCc1nc2cc(NC(=O)Cn3nc(N4CCC(C)CC4)ccc3=O)ccc2o1 [Example 97] | 296%
27 | CC1CCN(c2ccc(=O)n(CC(=O)Nc3ccn4ccnc4c3)n2)CC1 [Example 72] | 119%
28 | COc1ccc2c(c1)CCN2C(=O)Cn1nc(C2=CCC(C)(C)CC2)ccc1=O [Example 430] | 28%
29 | CC1(C)CC=C(c2ccc(=O)n(CC(=O)N3CCN(c4cncc(F)c4)CC3)n2)C1 [Example 483] | 175%
30 | COC1CN(c2cccc3c2CCN3C(=O)Cn2nc(C3=CCC(C)(C)CC3)ccc2=O)C1 [Example 434] | 232%
31 | Cc1cc(=O)n(CC(=O)Nc2ccn3ccnc3c2)nc1C1=CCC(C)(C)CC1 [Example 461] | 337%
32 | N#Cc1ccc(NC(=O)Cn2nc(N3CCC4(CC3)CC(F)(F)C4)ccc2=O)cc1 [Example 32] | 60%
33 | Cc1noc2ccc(NC(=O)Cn3nc(N4CCC(C)CC4)ccc3=O)cc12 [Example 70] | 68%
34 | COc1cc(=O)n(CC(=O)N2CCc3c(N4CCOCC4)cccc32)nc1C1=CCC(C(F)(F)F)CC1 (stereo not shown) [Example 476] | 343%
35 | Cc1ccc(-c2ccc(=O)n(CC(=O)N3CCc4cnccc43)n2)cc1 [Example 159] | 32%
36 | CC1(C)CCCN(c2ccc(=O)n(CC(=O)Nc3ccc(C#N)cc3)n2)C1 [Example 22] | 110%
37 | CC1CC=C(c2ccc(=O)n(CC(=O)N3CCN(c4ccccn4)CC3)n2)CC1 (stereo not shown) [Example 394] | 98%
38 | COc1nc2cc(NC(=O)Cn3nc(N4CCC(C)CC4)ccc3=O)ccc2o1 [Example 99] | 103%

same assay, conditions: Concentration for evaluation 50 μM; HEK293 cell line stably expressing human Nav1.1

Row | SMILES | Nav1.1 current amplification rate (%)
39 | C#CCN(C)c1cnc2cnn(CC(=O)Nc3ccc4ncnn4c3)c2n1 [Example 662] | 47%
40 | CC1CC=C(c2ccc(=O)n(CC(=O)Nc3ccnc(C4=CCN(C)C4)c3)n2)CC1 (stereo not shown) [Example 371] | 64%
41 | CN(CC(F)F)c1cnc2cnn(CC(=O)Nc3ccn4ncnc4c3)c2n1 [Example 627] | 60%
42 | Cc1ccc(-c2ccc(=O)n(CC(=O)N3CCc4ccccc43)n2)cc1 [Example 157] | 29%

same assay, conditions: HEK293, concentration for evaluation 0.3 μM; HEK293 stably expressing human Nav1.1; read-out: Nav1.1 current amplification rate (%)

Row | SMILES | activation at 0.3 µM
43 | CN(c1cnc2cnn(CC(=O)Nc3ccc4ncncc4c3)c2n1)C1CC2(CC2)C1 [Example 848] | 22%

same assay, conditions: HEK293, concentration for evaluation 1 μM; HEK293 stably expressing human Nav1.1; read-out: Nav1.1 current amplification rate (%)

Row | SMILES | activation at 1 µM
44 | CN(CC1CCC1)c1ncc2cnn(CC(=O)Nc3ccc(C#N)nc3)c2n1 [Example 840] | 164%
45 | CN(CC1(C)CC1)c1ncc2cnn(CC(=O)Nc3cnc4cccnc4c3)c2n1 [Example 851] | 89%
46 | CN(c1ccc2cnn(CC(=O)Nc3cnc4cccnc4c3)c2n1)C1CCCC1 [Example 891] | 81%

same assay, conditions: concentration for evaluation 1 μM; HEK293 stably expressing human Nav1.1

Row | SMILES | Nav1.1 current amplification rate (%)
47 | CN(c1ncc2cnn(CC(=O)Nc3ccn4ncnc4c3)c2n1)C1CCC(F)(F)C1 (stereo not shown) [Example 796] | 66%
48 | CN(c1ncc2cnn(CC(=O)Nc3ccc4ncnn4c3)c2n1)C1CC2(CC2)C1 [Example 820] | 50%
49 | O=C(Cn1ncc2ccc(N3CCC4(CC3)CC4)nc21)Nc1ccn2ncnc2c1 [Example 855] | 93%
